Results published in article PMC11355195 (Life, 2024).
In brackets after ≈: the same amount, converted by molar mass.

What was measured:
5-LOX = molecular target: T1, 5-LOX (Glycine max, UniProt P08170); test: 5-Lipoxygenase (5-LOX) inhibition
T1 sequence (P08170 1-839): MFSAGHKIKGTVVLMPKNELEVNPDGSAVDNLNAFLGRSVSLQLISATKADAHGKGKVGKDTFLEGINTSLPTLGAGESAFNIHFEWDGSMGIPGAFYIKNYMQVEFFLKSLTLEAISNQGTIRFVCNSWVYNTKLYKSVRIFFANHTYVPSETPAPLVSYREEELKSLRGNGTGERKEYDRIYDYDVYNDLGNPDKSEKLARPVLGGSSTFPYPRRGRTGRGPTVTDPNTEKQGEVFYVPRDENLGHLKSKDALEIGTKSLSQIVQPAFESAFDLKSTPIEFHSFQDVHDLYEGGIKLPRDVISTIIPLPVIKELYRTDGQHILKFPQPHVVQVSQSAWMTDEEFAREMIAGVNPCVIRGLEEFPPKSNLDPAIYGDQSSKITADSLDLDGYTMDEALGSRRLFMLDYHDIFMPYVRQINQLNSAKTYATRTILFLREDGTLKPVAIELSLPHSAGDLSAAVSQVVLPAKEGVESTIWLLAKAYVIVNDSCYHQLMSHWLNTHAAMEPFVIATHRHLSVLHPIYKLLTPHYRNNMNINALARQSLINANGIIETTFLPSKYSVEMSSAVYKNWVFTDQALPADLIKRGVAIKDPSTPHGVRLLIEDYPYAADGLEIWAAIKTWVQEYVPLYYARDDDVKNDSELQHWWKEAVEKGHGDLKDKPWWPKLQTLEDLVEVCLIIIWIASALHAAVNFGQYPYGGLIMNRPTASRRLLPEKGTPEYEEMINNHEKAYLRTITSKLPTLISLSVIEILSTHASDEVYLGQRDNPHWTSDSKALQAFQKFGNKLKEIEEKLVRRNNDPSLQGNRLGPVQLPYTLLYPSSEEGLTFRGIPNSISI
Excerpt: The % inhibition of hydrogen peroxide formation, an indication of lipoxygenase inhibitory action, was computed according to the formula: Inhibition percentage%=Acontrol−Ablank−Asample−Ablank/Acontrol−Ablank where Acontrol, Ablank and ASample represent the absorbances of the control well, blank, and test sample, respectively.

MCF-7 = test: MTT cell viability, MCF-7; assay type: cell-based, Human; settings: Homo sapiens, MCF7; MTT test; 72 h of treatment (Figure 3); read-out: IC50 Value ± SD, MCF-7
Experimental: These cell lines were selected to represent distinct sub-types of breast cancer for extensive investigation. […] The medium was added with 10% heat-inactivated fetal calf serum (FCS) to supply vital growth hormones and nutrients necessary for cell proliferation. Additionally, 1% penicillin streptomycin was administered to avoid bacterial contamination, ensuring the sterility and integrity of the cell cultures. The cell cultures were maintained at 37 °C in a humidified environment containing 5% CO2. This controlled environment mimics physiological conditions in the human body, supporting optimal cell development and function. The humidified atmosphere prevents medium evaporation, while the 5% CO2 concentration maintains optimal pH values in the culture medium. These specialized circumstances and methods ensure that the breast cancer cell lines remain healthy and viable for experimental procedures, delivering dependable and reproducible results for research projects. The standard protocols followed for cultivating these cells are crucial for generating consistent and reliable data. Using well-characterized cell lines from a credible source like ATCC ensures the re-liability and comparability of the experimental outcomes.
This approach determines cell viability based on the ability of living cells to decrease MTT to a purple, water-insoluble formazan product. Cells were planted in 96-well plates at a density of 1 × 10^4 cells per well in 100 μL of complete culture media, which provides all necessary nutrients for cell growth. […] The cells were then treated with the compounds for 24, 48, and 72 h to determine the effect on cell viability over varied time intervals. Following each incubation time, 20 μL of MTT solution (at a concentration of 5 mg/mL in PBS) were applied to each well. The plates were further incubated for 4 h at 37 °C, during which time live cells decrease the MTT to formazan, creating purple crystals. At the end of the incubation, the medium containing the MTT was carefully aspirated, leaving only the formazan crystals in the bottom of the wells. […]

DPPH scavenging capacity = settings: 0.1 mM DPPH
Experimental: The method utilized to test the compound’s efficacy in scavenging DPPH radicals was based on protocols detailed in references, with minor changes. The test was completed in duplicate for each concentration. A solution of 0.1 mM DPPH (2,2-diphenyl-1-picrylhydrazyl) was produced, and the compounds were evaluated at different concentrations ranging from 1 to 500 µg/mL. Ascorbic acid served as the positive control with concentrations ranging from 0.01 to 300 µg/mL [35].

ABTS scavenging activity = test: ABTS scavenging activity
Excerpt: With a few minor adjustments, the procedure published by Re et al., was used to evaluate the test samples’ capacity to scavenge radicals against the ABTS (2,2′-azinobis-3-ethylbenzothiazoline-6-sulphonate) radical cation.

- IC50 (5-LOX): 308 µM
- IC50 (MCF-7): 5.16 ± 0.71 µg/mL (≈ 34.3 µM)
- DPPH Scavenging Capacity IC50 (DPPH scavenging capacity): 161.02 ± 6.89 µg/mL
- ABTS Scavenging Activity IC50 (ABTS scavenging activity): 125.31 ± 6.25 µg/mL
SMILES: Cc1ccc(C(C)C)c(O)c1 [Thymol, 2-isopropyl-5-methylphenol]
